Source: patent US10555910B2, “Oligonucleotide lipid nanoparticle compositions, methods of making and methods of using the same” (Ohio State Innovation Foundation, priority 2014, dated 2020)

Experiments:
A549 cells [1] = assay: Migration assay (scratch wound healing); assay type: cell-based, human; conditions: A549, QT lipids or AM-21 (200 nM) alone, 48 h
Experimental: A wound healing model was conducted to examine the migratory ability of A549 cells following treatment. A549 cells were plated at a density of 6.0×10^5 cells/well in a 33 mm petri dish 24 h prior to transfection. A scratch wound across the dish was made using a 10 μL pipet tip immediately before treatment. Culture media was removed and replaced with transfection media containing QT/AM-21 or appropriate controls diluted in complete media. Cells were allowed to proliferate at 37° C. for 48 h. Distances between edges of the wound were measured on a Nikon E800 microscope (Nikon, Tokyo, Japan) and SPOT Advanced Imaging Software (v5.0, Diagnostic Instruments Inc., Sterling Heights, Mich., USA).
A549 cells were cultured following standard culture procedure and incubated with QT/AM-21 (5′-U*C*A*ACAUCAGUCUGAUAAG*C*U*A-3′, SEQ ID NO:3) at three different concentrations (50 nM, 100 nM and 200 nM), or free, unformulated AM-21 (200 nM) for 48 hours. The untreated cells and cells treated with empty “QTsome™” lipid nanoparticle formulation were used as control. The migration of tumor cells was determined.

A549 cells [2] = assay type: cell-based, human; parameters: decrease of cell viability: dose or concentration left out as unconfirmed
Experimental: Cells were grown in 96-well plates at a density of 2.0 ×10^4 cells/well. Cells were treated with controls or QT/AM-21 at 50, 100, or 200 nM, with and without PTX (4.1 nM) dissolved in a small volume of 1:1 Cremophor EL:ethanol solution. Relative cell viability was quantified by CellTiter 96® AQueous One Solution Cell Proliferation Assay (Promega, Madison, Wis., USA) according to the manufacturer's protocol 72 h following the start of treatment. Briefly, 20 μL MTS assay solution was added to each well and the plates were incubated for 1 h. The absorbance at 490 nm was recorded to determine cytotoxicity relative to the untreated control.
A549 cells were cultured as in Example 2, and treated with either QT/AM-21 (5′-U*C*A*ACAUCAGUCUGAUAAG*C*U*A-3′, SEQ ID NO:3) at three different concentrations (50 nM, 100 nM or 200 nM), paclitaxel (PTX) or a combination of PTX and QT/AM-21 (PTX/50 nM QT/AM-21; PTX/QT/100 nM-21; TX/200 nM QT/AM-21). (Dosage of PXT was 4nM).
The cells were incubated with the drugs for 72 h; after which the cells were harvested and tested for cytotoxicity and viability using MTS assay kit by Promega. Absorbance scanning was done at 490 nm to determine relative cell viabilities.

miR-21 [3] = assay: In vitro gene regulation in A549 cells (qRT-PCR of miR-21 and its target genes); assay type: cell-based, human; conditions: 100 nM AM-21, mRNA relative to GAPDH
Experimental: Cells were grown in 24-well plates at a density of 7.0×10^5 cells/well 24 h prior to transfection. QT/AM-21 of varying lipid composition or QT/negative control (NC) were administered at 50 nM in the presence of 20% serum containing media to determine the optimal QT composition. […] Cells were incubated at 37° C. with transfection media for 4 h and then washed three times with PBS. Fresh complete cell culture media was added and the cells were incubated at 37° C. for an additional 44 h. RNA was isolated from cells by RNeasy 96 kit (Qiagen, Valencia, Calif., USA). qRT-PCR was conducted with Taqman® MicroRNA Assay (Life Technologies) or EXPRESS One-Step Superscript® qRT-PCR kit (Life Technologies) on an Applied Biosystems StepOnePlus™ RT-PCR system (Life Technologies). The relative amount of […] was calculated and compared according to the 2^−ΔΔCt method.
Lung cancer A549 cells (human lung adenocarcinoma epithelial cell line) were cultured in vitro as standard cell culture. Cells were cultured in RPMI 1640 media supplemented with 10% FBS and 1% antibiotics/antimycotics in a 5% CO2 atmosphere at 37° C. […]
RNA was extracted by TRIzol reagent per manufacturer's protocol. cDNA was generated by Maxima First Strand cDNA synthesis kit per manufacture's protocol. […] RECK and PTEN mRNA levels were measured relative to GAPDH.

A549 cells [4] = assay: Matrigel invasion assay; assay type: cell-based, human; conditions: A549, QT lipids or AM-21 alone, 48 h
Experimental: Matrigel (BD Biosciences, San Jose, Calif., USA) was combined with serum-free RPMI 1640 culture media in a 1:1 ratio. 70 μL of gel was added to each well insert of a 24-well plate. The gel was allowed to set for 1 h at 37° C. A549 cells were seeded at […] in a volume of 100 μL/well on top of the gel in the insert. Transfection media containing various formulations or controls at 2×concentration in a 100 μL volume were added to the top of the well inserts. 500 μL 10% fetal bovine supplemented media was added as a chemoattractant below the transwell insert. The plate was incubated at 37° C. for 48 h. Following the incubation period, cells remaining in the top of the well inserts were removed with a cotton swab. Well inserts were rinsed with PBS and placed in 500 uL 0.25% trypsin solution for 1 h at 37° C. Detached cells were counted on a hemocytometer.
A matrigel invasion assay was also performed after 48 hour treatment, as follows: Chilled Matrigel was combined with chilled serum-free RPMI 1640 culture media in a 1:1 ratio. 70 uL of gel was added to each well insert of a 24-well plate. The gel was allowed to set for 1 hour at 37° C. A549 cells were seeded at 75,000 cells/well in a volume of 100 uL/well on top of the gel. […] Detached cells were counted on a hemocytometer.

miR-21 [5] = assay: In vivo gene regulation in A549 xenograft tumors (qRT-PCR); parameters: species or system mice; conditions: 1 mg/kg QT/AM-21 and/or 3 mg/kg PTX
Experimental: Female athymic nude mice (n=5 per group) were implanted with 1.0×10^6 A549 cells/mouse and treatment began when tumors reached a size of ≥100 mm^3. Mice were treated by tail vein injection with saline control or 1 mg/kg QT/AM-21. Mice receiving PTX treatment as monotherapy or combination therapy received PTX dissolved in 1:1 Cremephor EL:ethanol solution at a dose of 3 mg/kg via intraperitoneal injection. Mice were dosed on days 1, 3, 5, 8, 15, 22, 29 and were monitored over a 4 week period. 48 h following the last dose, mice were euthanized and tumors were collected for gene regulation study.
Tumors were harvested and placed in TRIzol reagent (Life Technologies) following treatment and homogenized. mRNA was isolated per the manufacturer's protocol. qRT-PCR was then completed according to the same procedure as outlined in the in vitro section.

A549 xenograft = assay: Combination therapy (QT/AM-21 and PTX) in A549 xenograft; assay type: in vivo, mice; conditions: 1 mg/kg QT/AM-21 tail vein and/or 3 mg/kg PTX i.p., start ~80 mm^3, 4 weeks
Experimental: Mice were treated by tail vein injection with saline control or 1 mg/kg QT/AM-21. Mice receiving PTX treatment as monotherapy or combination therapy received PTX dissolved in 1:1 Cremephor EL:ethanol solution at a dose of 3 mg/kg via intraperitoneal injection. Mice were dosed on days 1, 3, 5, 8, 15, 22, 29 and were monitored over a 4 week period. 48 h following the last dose, mice were euthanized and tumors were collected for gene regulation study.

u*c*a*acaucagucugauaag*c*u*a (UCAACAUCAGUCUGAUAAGCUA; linkages s3 o15 s3 (s phosphorothioate, o phosphodiester), sugars by position and methylation of C not given here; further chemistry not fully specified) [AM-21]
cell migration in the wound region (A549 cells [1]): did not confer significant decreases in cell migration
change of cell viability on addition to PTX (A549 cells [2]; A549, free AM-21 or QT lipids added to PTX, MTS): did not result in significant decreases in cell viability
expression of RECK compared to untreated control A549 cells (miR-21 [3]): upregulated
cell invasion (A549 cells [4]): did not significantly retard cell invasion

CC(=O)O[C@H]1C(=O)[C@@]2(C)[C@H]([C@H](OC(=O)c3ccccc3)[C@]3(O)C[C@H](OC(=O)[C@H](O)[C@@H](NC(=O)c4ccccc4)c4ccccc4)C(C)=C1C3(C)C)[C@]1(OC(C)=O)CO[C@@H]1C[C@@H]2O [PTX, Paclitaxel]
upregulation of DDAH1 and PTEN in tumors (miR-21 [5]): moderate upregulation
DDAH1 upregulation in tumors (miR-21 [5]; 48 h after last dose): 1.7 fold
PTEN upregulation in tumors (miR-21 [5]; 48 h after last dose): 1.5 fold
cells still alive compared to untreated control (A549 cells [2]; A549, PTX alone (4 nM), 72 h, MTS): ~65%
decrease of cell viability (A549 cells [2]; human, 72 h): 40%
tumor volume at end of study (A549 xenograft): 246.4 mm^3
